According to patent publication US7803801B2, “Aminopyridine compounds having Syk inhibitory activity” (Japan Tobacco, Inc., priority 2005, dated 2010):
Counter-ions that a name gives are not always drawn. Like-named read-outs stand apart in the source and are kept apart here.

Columns and labels:
[1] = test system: cultured human mast cells; assay: Degranulation inhibition test using cultured human mast cells (IgE cross-linking, β-Hexosaminidase release); format: cell-based; settings: Mast cell, cultured human mast cells, read-out: human degranulation ave. IC50
Procedure, shortened: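 Degranulation was triggered by anti-hIgE (10 μg/mL final, 30 min, 37 °C) after a 10-min compound pretreatment (DMSO 0.1%) of cord-blood CD34+-derived mast cells primed 5 days with IL-4 and IgE. β-Hexosaminidase in supernatant was measured with p-nitrophenyl-GlcNAc substrate (A405), expressed against water-lysed total; IC50 (M).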

[2] = target: GST-Syk Full Protein (human) (Homo sapiens, UniProt P43405); assay: Syk kinase inhibition test (HTRF method); format: biochemical
Procedure, shortened: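 HTRF read-out: after EDTA termination and 1 h with XL665-streptavidin and Eu-anti-phosphotyrosine, the 665/620 nm ratio was measured. The reaction ran 30 min at 20–25 °C with final 6.4 nM human GST-Syk, 250 nM biotinylated peptide, 100 μM ATP, pH 7.0 HEPES buffer, 2% DMSO.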

[3] = anti-hIgE stimulation, β-Hexosaminidase index, average
[4] = HTRF, 100 μM ATP, 30 min room temperature, average, read-out: sykHTRF ave IC50
[5] = Tables 1-x, compounds A, read-out: sykHTRF ave IC50
[6] = Tables 2-x, thiophene compounds B
[7] = Tables 2-x, thiophene compounds B, read-out: sykHTRK ave IC50

Row | Structure (SMILES) | IC50 [1, 3] | IC50 [2, 4] | also measured
1 | Cc1ccnc(Nc2cccc(-c3cnc(C4CCNCC4)s3)n2)c1 [Compound A-92, (4-methylpyridin-2-yl)-[6-(2-piperidin-4-ylthiazol-5-yl)pyridin-2-yl]amine] | 100 to 1000 nM | < 100 nM | 
2 | Cc1ccnc(Nc2cccc(-c3cnc([C@@H]4CCCC(=O)N4C)s3)n2)c1 [Compound A-364] | 100 to 1000 nM | 100 to 1000 nM | 
3 | Cc1ccnc(Nc2cccc(-c3cnc(N4CCC(C)(CC(=O)O)CC4)s3)n2)c1 [Compound A-613, (4-methyl-1-{5-[6-(4-methylpyridin-2-ylamino)pyridin-2-yl]thiazol-2-yl}piperidin-4-yl)acetic acid dihydrochloride] |  |  | IC50 ([1]; Tables 1-x, compounds A): 100 to 1000 nM; IC50 [2, 5]: < 100 nM
4 | Cc1ccnc(Nc2cccc(-c3cnc([C@H]4CC[C@H](C(=O)N5CCC(CO)CC5)CC4)s3)n2)c1 [Compound A-242] | 100 to 1000 nM | 100 to 1000 nM | 
5 | Cc1ccnc(Nc2cccc(-c3cnc([C@H]4CC[C@H](C(=O)N[C@H]5CC[C@H](O)CC5)CC4)s3)n2)c1 [Compound A-305] | 100 to 1000 nM | 100 to 1000 nM | 
6 | Cc1ccnc(Nc2cccc(-c3cnc(CCc4ccc(O)cc4)s3)n2)c1 [Compound A-135, 4-(2-{5-[6-(4-methylpyridin-2-ylamino)pyridin-2-yl]thiazol-2-yl}ethyl)phenol] | 100 to 1000 nM | < 100 nM | 
7 | Cc1ccnc(Nc2cccc(-c3cnc(C4CCN(C(=O)N(C)C)CC4)s3)n2)c1 [Compound A-371] | 100 to 1000 nM | 100 to 1000 nM | 
8 | Cc1ccnc(Nc2cccc(-c3cc(C)c(C(=O)O)s3)n2)c1 [Compound B-37] |  |  | IC50 [1, 6]: > 1000 nM; IC50 [2, 7]: 100 to 1000 nM
9 | Cc1ccnc(Nc2cccc(-c3cnc([C@H]4CC[C@H](C(=O)N5CCC(N)C5)CC4)s3)n2)c1 (stereo partly drawn) [Compound A-311, (3-aminopyrrolidin-1-yl)-(trans-4-{5-[6-(4-methylpyridin-2-ylamino)pyridin-2-yl]thiazol-2-yl}cyclohexyl)methanone trihydrochloride] | 100 to 1000 nM | < 100 nM | 
10 | CCC(O)c1ccc(-c2cccc(Nc3cc(C)ccn3)n2)s1 (stereo not shown) [Compound B-47] |  |  | IC50 [1, 6]: 100 to 1000 nM; IC50 [2, 7]: 100 to 1000 nM
11 | Cc1ccnc(Nc2cccc(-c3cnc(CN4C(=O)COCC4=O)s3)n2)c1 [Compound A-387] |  |  | IC50 ([1]; Tables 1-x, compounds A): 100 to 1000 nM; IC50 [2, 5]: 100 to 1000 nM
12 | CC(O)c1ccnc(Nc2cccc(-c3cnc(N4CCC(C(N)=O)CC4)s3)n2)c1 (stereo not shown) [Compound A-547, 1-(5-{6-[4-(1-hydroxyethyl)pyridin-2-ylamino]pyridin-2-yl}thiazol-2-yl)piperidine-4-carboxamide] |  |  | IC50 ([1]; Tables 1-x, compounds A): > 1000 nM; IC50 [2, 5]: < 100 nM
13 | Cc1ccnc(Nc2cccc(-c3cnc(CN4CCN(S(C)(=O)=O)CC4)s3)n2)c1 [Compound A-198] | 100 to 1000 nM | 100 to 1000 nM | 
14 | CC(=O)c1ccc(-c2cccc(Nc3cc(OCCO)ccn3)n2)s1 [Compound B-73, 1-(5-{6-[4-(2-hydroxyethoxy)pyridin-2-ylamino]pyridin-2-yl}thiophen-2-yl)ethanone] |  |  | IC50 [1, 6]: 100 to 1000 nM; IC50 [2, 7]: < 100 nM
15 | Cc1ccnc(Nc2cccc(-c3cnc([C@H]4CC[C@H](C(=O)N5CCC(N)CC5)CC4)s3)n2)c1 [Compound A-290, (4-aminopiperidin-1-yl)-(trans-4-{5-[6-(4-methylpyridin-2-ylamino)pyridin-2-yl]thiazol-2-yl}cyclohexyl)methanone] | > 1000 nM | < 100 nM | 
16 | COc1cc(C(=O)O)ccc1CN(C)c1ncc(-c2cccc(Nc3cc(C)ccn3)n2)s1 [Compound A-606, 3-methoxy-4-[(N-methyl-N-{5-[6-(4-methylpyridin-2-ylamino)pyridin-2-yl]thiazol-2-yl}amino)methyl]benzoic acid dihydrochloride] |  |  | IC50 ([1]; Tables 1-x, compounds A): 100 to 1000 nM; IC50 [2, 5]: < 100 nM
17 | Cc1ccnc(Nc2cccc(-c3cnc(C4CCCC(C(=O)N5C[C@@H](O)[C@@H](O)C5)C4)s3)n2)c1 (stereo partly shown) [Compound A-273] | > 1000 nM | 100 to 1000 nM | 
18 | Cc1ccnc(Nc2cccc(-c3cnc(CN4CCNCC4)s3)n2)c1 [Compound A-194, N-(4-methylpyridin-2-yl)-N-{6-[2-(piperazin-1-ylmethyl)thiazol-5-yl]pyridin-2-yl}amine] | 100 to 1000 nM | < 100 nM | 
19 | Cc1ccnc(Nc2cccc(-c3cnc(C(=O)CCC(=O)O)s3)n2)c1 [Compound A-124] | > 1000 nM | 100 to 1000 nM | 
20 | Cc1ccnc(Nc2cccc(-c3cnc(CCCCC(=O)O)s3)n2)c1 [Compound A-69, 5-{5-[6-(4-methylpyridin-2-ylamino)pyridin-2-yl]thiazol-2-yl}pentanoic acid] | > 1000 nM | < 100 nM | 
21 | Cc1ccnc(Nc2cccc(-c3cnc(C4CCN(C(=O)N5CCC(=O)CC5)CC4)s3)n2)c1 [Compound A-250] |  | 100 to 1000 nM | IC50 ([1]; Homo sapiens, anti-hIgE stimulation, β-Hexosaminidase index, average): 100 to 1000 nM

Row | Structure (SMILES) | IC50 [1, 3] | IC50 [2, 4] | also measured
22 | CC(=O)N[C@@H](C)c1nc(CO)c(-c2cccc(Nc3cc(C)ccn3)n2)s1 [Compound A-108] | > 1000 nM | > 1000 nM | 
23 | Cc1ccnc(Nc2cccc(-c3cnc(C(=O)NCCC(=O)O)s3)n2)c1 [Compound A-148, 3-({5-[6-(4-methylpyridin-2-ylamino)pyridin-2-yl]thiazole-2-carbonyl}amino)propionic acid] | > 1000 nM | < 100 nM | 
24 | O=C(O)CC1CCN(c2ncc(-c3cccc(Nc4cc(Cl)ccn4)n3)s2)CC1 [Compound A-620, (1-{5-[6-(4-chloropyridin-2-ylamino)pyridin-2-yl]thiazol-2-yl}piperidin-4-yl)acetic acid dihydrochloride] |  |  | IC50 ([1]; Tables 1-x, compounds A): 100 to 1000 nM; IC50 [2, 5]: < 100 nM
25 | Cc1ccnc(Nc2cccc(-c3cnc([C@H]4CC[C@H](C(=O)NC(C)(C)CO)CC4)s3)n2)c1 [Compound A-175] | 100 to 1000 nM | 100 to 1000 nM | 
26 | Cc1ccnc(Nc2cccc(-c3ccc(C(C)O)s3)n2)c1 (stereo not shown) [Compound B-3, 1-{5-[6-(4-methylpyridin-2-ylamino)pyridin-2-yl]thiophen-2-yl}ethanol] |  |  | IC50 [1, 6]: 100 to 1000 nM; IC50 [2, 7]: 100 to 1000 nM
27 | Cc1ccnc(Nc2cccc(-c3cnc(N4CCC(CC(N)=O)CC4)s3)n2)c1 [Compound A-504, 2-(1-{5-[6-(4-methylpyridin-2-ylamino)pyridin-2-yl]thiazol-2-yl}piperidin-4-yl)acetamide] |  |  | IC50 ([1]; Tables 1-x, compounds A): 100 to 1000 nM; IC50 [2, 5]: < 100 nM
28 | CC(=O)N[C@@H](C)c1nc(C)c(-c2cccc(Nc3cc(C)ccn3)n2)s1 [Compound A-105] | > 1000 nM | 100 to 1000 nM | 
29 | Cc1ccnc(Nc2cccc(-c3cnc([C@H](C)N)s3)n2)c1 [Compound A-9, N—((S)-1-{5-[6-(4-methylpyridin-2-ylamino)pyridin-2-yl]thiazol-2-yl}ethyl)amine] | 100 to 1000 nM | 100 to 1000 nM | 
30 | CONC(=O)c1ccc(-c2cccc(Nc3cc(C)ccn3)n2)s1 [Compound B-64] |  |  | IC50 [1, 6]: 100 to 1000 nM; IC50 [2, 7]: 100 to 1000 nM
31 | COc1ccnc(Nc2cccc(-c3cnc([C@@H]4CCC(=O)N4)s3)n2)c1 [Compound A-319, (S)-5-{5-[6-(4-methoxypyridin-2-ylamino)pyridin-2-yl]thiazol-2-yl}pyrrolidin-2-one] | 100 to 1000 nM | < 100 nM | 
32 | Cc1ccnc(Nc2cccc(-c3cnc(N(C)[C@H]4CC[C@@H](CC(=O)O)CC4)s3)n2)c1 [Compound A-611, [cis-4-(N-methyl-N-{5-[6-(4-methylpyridin-2-ylamino)pyridin-2-yl]thiazol-2-yl}amino)cyclohexyl]acetic acid] |  |  | IC50 ([1]; Tables 1-x, compounds A): 100 to 1000 nM; IC50 [2, 5]: < 100 nM
33 | Cc1ccnc(Nc2cccc(-c3cnc([C@H]4CC[C@H](C(=O)N5C[C@H](O)C[C@H](O)C5)CC4)s3)n2)c1 [Compound A-227] | 100 to 1000 nM | 100 to 1000 nM | 
34 | O=C([C@H]1CC[C@H](c2ncc(-c3cccc(Nc4cc(Cl)ccn4)n3)s2)CC1)N1CCC(O)CC1 [Compound A-297, (trans-4-{5-[6-(4-chloropyridin-2-ylamino)pyridin-2-yl]thiazol-2-yl}cyclohexyl)-(4-hydroxypiperidin-1-yl)metanone] | 100 to 1000 nM | < 100 nM | 
35 | OCc1ccnc(Nc2cccc(-c3cccs3)n2)c1 [Compound B-94] |  |  | IC50 [1, 6]: 100 to 1000 nM; IC50 [2, 7]: 100 to 1000 nM
36 | Cc1ccnc(Nc2cccc(-c3cnc(CCc4ccc(N)cc4)s3)n2)c1 [Compound A-218] | 100 to 1000 nM | 100 to 1000 nM | 
37 | Cc1ccnc(Nc2cccc(-c3cnc(C4CCN(C(N)=O)CC4)s3)n2)c1 [Compound A-182, 4-{5-[6-(4-methylpyridin-2-ylamino)pyridin-2-yl]thiazol-2-yl}piperidine-1-carboxamide] | 100 to 1000 nM | < 100 nM | 
38 | Cc1ccnc(Nc2cccc(-c3ccc(C(=O)NC4CC4)s3)n2)c1 [Compound B-104] |  |  | IC50 [1, 6]: > 1000 nM; IC50 [2, 7]: 100 to 1000 nM
39 | Cc1ccnc(Nc2cccc(-c3cnc([C@@H]4CCC(=O)O4)s3)n2)c1 [Compound A-33, (S)-5-{5-[6-(4-methylpyridin-2-ylamino)pyridin-2-yl]thiazol-2-yl}dihydrofuran-2-one] | 100 to 1000 nM | < 100 nM | 
40 | Cc1ccnc(Nc2cccc(-c3ccc(C4=NC(C)(C)CO4)s3)n2)c1 [Compound B-39] |  |  | IC50 [1, 6]: > 1000 nM; IC50 [2, 7]: 100 to 1000 nM
41 | Cc1ccnc(Nc2cccc(-c3cnc([C@H](C)NC(=O)Cc4ccc(O)cc4)s3)n2)c1 [Compound A-352] | 100 to 1000 nM | 100 to 1000 nM | 
